Results reported in patent US20090131431A1, “Pyrazolo[3,4-b]pyridine compounds, and their use as a PDE4 inhibitors” (priority 2005, published 2009).
Where a name gives a salt, the structure may show the parent alone.

Legend:
[1] = tested on: atopic dermatitis patients; conditions: cited from earlier work
[2] = target: T1, PDE4B (human recombinant) (Homo sapiens, UniProt Q07343); assay: Inhibition of PDE4B activity: SPA and/or Fluorescence Polarisation (FP) assay; assay type: biochemical; conditions: one reading (n=1) or average of 2 or more readings, read-out: PDE4B pIC50 (±about 0.5) (converted)
T1 construct: made in house
T1 sequence (Q07343 1-564 isoform Q07343-2): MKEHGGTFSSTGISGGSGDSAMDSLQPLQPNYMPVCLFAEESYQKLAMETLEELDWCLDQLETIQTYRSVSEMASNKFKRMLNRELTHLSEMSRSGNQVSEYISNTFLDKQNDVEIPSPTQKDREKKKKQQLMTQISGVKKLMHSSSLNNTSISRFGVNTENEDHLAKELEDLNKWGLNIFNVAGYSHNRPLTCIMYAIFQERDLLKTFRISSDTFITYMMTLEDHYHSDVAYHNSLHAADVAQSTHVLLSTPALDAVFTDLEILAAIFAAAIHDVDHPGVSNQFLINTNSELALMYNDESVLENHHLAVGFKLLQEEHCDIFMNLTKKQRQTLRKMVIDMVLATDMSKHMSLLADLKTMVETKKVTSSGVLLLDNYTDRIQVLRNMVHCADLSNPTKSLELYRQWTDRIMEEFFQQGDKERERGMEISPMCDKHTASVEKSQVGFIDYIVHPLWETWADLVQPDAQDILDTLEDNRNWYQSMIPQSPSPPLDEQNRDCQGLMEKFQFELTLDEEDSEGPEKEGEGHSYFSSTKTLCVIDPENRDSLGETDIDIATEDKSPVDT
Procedure, shortened: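 Human recombinant PDE4B activity measured by SPA with [3H]cAMP at about 10 nM, 1 h at ambient temperature, enzyme set for ≤20% substrate hydrolysis, or by IMAP FP with Fl-cAMP at about 40 nM, 40 min at ambient temperature under linear conditions. Inhibition curves fitted; values reported as pIC50.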

COPD patients = conditions: cited from earlier work
[3] = tested on: humans with histories of allergic rhinitis; conditions: orally 500 ug once daily for 9 days; intranasal allergen provocation (pollen extracts); cited from earlier work

| Compound | IC50 [2] | other results |
| --- | --- | --- |
| COc1ccc(C2CNC(=O)NC2)cc1O[C@H]1C[C@@H]2CC[C@H]1C2 [CP80,633] | – | inflammatory parameters in atopic dermatitis patients ([1]; 0.5% ointment, twice daily topical application): reductions of inflammatory parameters |
| CCc1nc2c(cnn2CC)c(NC2CCOCC2)c1CNC(=O)c1ccc(C(F)(F)F)nc1 [Example 326, N-{[1,6-diethyl-4-(tetrahydro-2H-pyran-4-ylamino)-1H-pyrazolo[3,4-b]pyridin-5-yl]methyl}-6-(trifluoromethyl)-3-pyridinecarboxamide] | 0.126 to 1 nM | – |
| CCc1nc2c(cnn2CC)c(NC2CCOCC2)c1CNC(=O)c1cnc(C)nc1 [Example 331, N-{[1,6-diethyl-4-(tetrahydro-2H-pyran-4-ylamino)-1H-pyrazolo[3,4-b]pyridin-5-yl]methyl}-2-methyl-5-pyrimidinecarboxamide] | 0.126 to 1 nM | – |
| CCc1nc2c(cnn2CC)c(NC2CCOCC2)c1CNC(=O)c1ccc(C)nc1 [Example 334, N-{[1,6-diethyl-4-(tetrahydro-2H-pyran-4-ylamino)-1H-pyrazolo[3,4-b]pyridin-5-yl]methyl}-6-methyl-3-pyridinecarboxamide] | 0.126 to 1 nM | – |
| CCc1nc2c(cnn2CC)c(NC2CCOCC2)c1CNC(=O)c1oc(C)nc1C [Example 335, N-{[1,6-diethyl-4-(tetrahydro-2H-pyran-4-ylamino)-1H-pyrazolo[3,4-b]pyridin-5-yl]methyl}-2,4-dimethyl-1,3-oxazole-5-carboxamide formate] | 0.126 to 1 nM | – |
| COc1ccc([C@]2(C#N)CC[C@@H](C(=O)O)CC2)cc1OC1CCCC1 [cilomilast] | – | forced expiratory volume in 1s (FEV1) in COPD patients (COPD patients; 15 mg orally twice daily): appears to improve forced expiratory volume in 1s (FEV1); antiinflammatory effects in COPD patients (COPD patients; human, in vivo): appears to have antiinflammatory effects |
| Nc1nc2c([nH]1)c(=O)n(CC1CC1)c(=O)n2CC1CC1 [cipamfylline] | – | effectiveness in the treatment of atopic dermatitis patients ([1]; 0.15% cream, vs vehicle and hydrocortisone 17-butyrate (0.1%) cream): significantly more effective than vehicle, but significantly less effective than hydrocortisone 17-butyrate (0.1%) cream |
| O=C(Nc1c(Cl)cncc1Cl)c1ccc(OC(F)F)c(OCC2CC2)c1 [roflumilast] | – | FEV1 in COPD patients (COPD patients; human, in vivo): appears to show small improvements in FEV1; rhinal airflow during the treatment period (compared to placebo) [3]: effective in improving rhinal airflow |

Second part, led by results:

| IC50 [2] | Compound | other results |
| --- | --- | --- |
| 0.126 to 1 nM | CCn1ncc2c(NC3CCOCC3)c(CNC(=O)c3cnc(C(C)(C)C)nc3)c(C)nc21 [Example 336, 2-(1,1-dimethylethyl)-N-{[1-ethyl-6-methyl-4-(tetrahydro-2H-pyran-4-ylamino)-1H-pyrazolo[3,4-b]pyridin-5-yl]methyl}-5-pyrimidinecarboxamide] | – |
| 0.126 to 1 nM | CCn1ncc2c(NC3CCOCC3)c(CNC(=O)c3ccc(C)nc3)c(C)nc21 [Example 337, N-{[1-ethyl-6-methyl-4-(tetrahydro-2H-pyran-4-ylamino)-1H-pyrazolo[3,4-b]pyridin-5-yl]methyl}-6-methyl-3-pyridinecarboxamide] | – |
| 0.01 to 0.1 nM | CCc1nc2c(cnn2CC)c(NC2CCOCC2)c1CNC(=O)c1csc(C(F)(F)F)n1 [Example 339, N-{[1,6-diethyl-4-(tetrahydro-2H-pyran-4-ylamino)-1H-pyrazolo[3,4-b]pyridin-5-yl]methyl}-2-(trifluoromethyl)-1,3-thiazole-4-carboxamide] | – |
| 0.126 to 1 nM | CCc1nc2c(cnn2CC)c(NC2CCOCC2)c1CNC(=O)C1CCN(S(C)(=O)=O)CC1 [Example 341, N-{[1,6-diethyl-4-(tetrahydro-2H-pyran-4-ylamino)-1H-pyrazolo[3,4-b]pyridin-5-yl]methyl}-1-(methylsulfonyl)-4-piperidinecarboxamide] | – |
| 0.126 to 1 nM | CCc1nc2c(cnn2CC)c(NC2CCOCC2)c1CN1CCN(C)C1=O [Example 343, 1-{[1,6-diethyl-4-(tetrahydro-2H-pyran-4-ylamino)-1H-pyrazolo[3,4-b]pyridin-5-yl]methyl}-3-methyl-2-imidazolidinone] | – |
| 0.126 to 1 nM | CCc1nc2c(cnn2CC)c(NC2CCOCC2)c1CN1Cc2nnsc2C1=O [Example 344, 5-{[1,6-diethyl-4-(tetrahydro-2H-pyran-4-ylamino)-1H-pyrazolo[3,4-b]pyridin-5-yl]methyl}-4,5-dihydro-6H-pyrrolo[3,4-d][1,2,3]thiadiazol-6-one] | – |
| 0.126 to 1 nM | CCc1nc2c(cnn2CC)c(NC2CCOCC2)c1CNC(=O)c1cnc(C(C)C)nc1 [Example 346, N-{[1,6-diethyl-4-(tetrahydro-2H-pyran-4-ylamino)-1H-pyrazolo[3,4-b]pyridin-5-yl]methyl}-2-(1-methylethyl)-5-pyrimidinecarboxamide] | – |
| 0.126 to 1 nM | CCn1ncc2c(NC3CCOCC3)c(CNC(=O)c3cnc(C(C)C)nc3)c(C)nc21 [Example 347, N-{[1-ethyl-6-methyl-4-(tetrahydro-2H-pyran-4-ylamino)-1H-pyrazolo[3,4-b]pyridin-5-yl]methyl}-2-(1-methylethyl)-5-pyrimidinecarboxamide] | – |
| 0.126 to 1 nM | CCn1ncc2c(NC3CCOCC3)c(CNC(=O)c3cnc(C)cn3)c(C(F)(F)F)nc21 [Example 348, N-{[1-Ethyl-4-(tetrahydro-2H-pyran-4-ylamino)-6-(trifluoromethyl)-1H-pyrazolo[3,4-b]pyridin-5-yl]methyl}-5-methyl-2-pyrazinecarboxamide] | – |
| 0.126 to 1 nM | CCn1ncc2c(NC3CCOCC3)c(CNC(=O)c3cnc(C)s3)c(C(F)(F)F)nc21 [Example 349, N-{[1-Ethyl-4-(tetrahydro-2H-pyran-4-ylamino)-6-(trifluoromethyl)-1H-pyrazolo[3,4-b]pyridin-5-yl]methyl}-2-methyl-1,3-thiazole-5-carboxamide] | – |
